Like-named read-outs stand apart in the source and are kept apart here.
Tests used:
GABAA receptors [1] = experiment: GABAA receptor binding, [3H]-flunitrazepam displacement on rat brain membranes; settings: n=6, read-out: GABAAR binding (IC50)
Protocol: Rat brain membranes are prepared from frozen tissue that was thawed on ice, homogenized on ice in 10 volumes of cold lysis buffer (50 mM Tris HCl, pH 7.4, containing protease inhibitor cocktail from Roche) using a Polytron homogenizer (6 pulses and 10 seconds per pulse). The homogenate is centrifuged at 1,000×g for 10 min at 4° C. to obtain supernatant. The supernatant is then centrifuged at 40,000×g for 20 min, and then the resulting supernatant is decanted and replaced with the same ice-cold lysis buffer. Two or three additional rounds of homogenization-centrifugation are performed to ensure thorough homogenization and also to wash out endogenous ligands. The final pellet is resuspended in the same buffer and homogenized one last time. The rat brain suspension is diluted in buffer (50 mM Tris HCl, 2.5 mM CaCl2), pH 7.4), followed by the addition of [3H]-flunitrazepam (0.6-4.0 nM in DMSO) and PI320 or PI310 in DMSO at different concentrations to reach a final of volume of 125 ul per well. GABAAR subtypes that bind flunitrazepam consist of α1-3,5,6β1-3γ1-3/δ GABAARs. Relative expression of GABAARs in the brain consist of 43% α1β2γ2, 15% α2β3γ2+8% α2βγ1, 10% α3β3γ2, 6% α4βγ/δ, 4% α5β3γ2, and 4% α6β2γ2/δ. […]
Total binding and nonspecific binding are determined with reference compound clonazepam. […] Scintillation cocktail is then melted onto the microwave-dried filters on a hot plate and radioactivity counted in a Microbeta counter. The data (n=6) are analyzed by nonlinear regression.
GABAA receptor binding: Rat brain membranes were prepared from frozen tissue that was thawed on ice and homogenized on ice in 10 volumes of cold lysis buffer (50 mM Tris HCl, pH 7.4, containing protease inhibitor cocktail; Roche) using a Polytron homogenizer (6 pulses and 10 seconds per pulse). […] Total binding and nonspecific binding were determined with reference compound clonazepam. […] Scintillation cocktail was then melted onto the microwave-dried filters on a hot plate and radioactivity counted in a Microbeta counter. The data (n=6) were analyzed by nonlinear regression.

[2] = system: Swiss Webster mice with 3% Dextran sodium sulfate (DSS) induced ulcerative colitis; experiment: Inflammatory bowel disease model, 3% DSS induced ulcerative colitis, bodyweight; format: in vivo; settings: 100 mg/kg daily in peanut butter, 3% DSS water
Protocol: (§1) Ten (10) week old female Swiss Webster mice were offered 3% Dextran sodium sulfate (DSS) water to induce ulcerative colitis. Group 1 (n=8) received daily peanut butter (200 mg) and group 2 (n=8) received 100 mg/kg PI320 in peanut butter. The animals were weighted daily. See, FIGS. 1A and 1B.

[3] = system: colon MPO activity (Myeloperoxidase); experiment: MPO assay on whole colon homogenates of DSS mice; format: in vivo; settings: 100 mg/kg daily in peanut butter, 3% DSS water
Protocol: as §1
MPO assay: Whole colons were homogenized in phosphate buffer and centrifuge at 10,000 rpm at 4° C. from 10 min. The protein concentration supernatant was determined with a BCA assay and adjusted to 200 μg/ml with the addition of phosphate buffer. A daily standard solution for the hydrogen peroxide solution was prepared to a concentration of 0.0024% from a 35% v/v stock. The phosphate buffer that was prepared for the BCA assay was utilized for the dilution step of this assay. O-dianisidine dihydrogen chloride was prepared at a concentration of 167 μg/mL in phosphate buffer and sonicated for 30 min to dissolve in the buffer. 8 µL of protein solution was transferred to a 384 well plate containing 62 μL of the o-dianisidine solution. The reaction is initiated with the addition of 10 μL of the hydrogen peroxide solution prepared above. […] The product of this reaction shifts the absorbance to the λmax to 460 nm. The plate is then measured over a 15 min period in the plate reader in 30 sec intervals. […]

[4] = system: mice with INFγ/LPS induced lung inflammation; experiment: Steroid resistant mouse asthma model (INFγ/LPS), airway hyperresponsiveness sRaw after methacholine; format: in vivo; settings: for reduction of AHR (sRAW) versus vehicle control: nebulized 7.2 mg/kg, prior to second and third methacholine application, p≤0.005
Protocol: Female A/J mice are purchased from Jackson Laboratory (Bar Harbor, ME) and female Swiss Webster mice are purchased from Charles River Laboratory (Wilmington, MA). Animals are given ad libitum access to food and water. Test drugs are prepared for nebulization as follows: a 3.0 mg/ml solution of albuterol (Millipore Sigma) is prepared in phosphate buffered saline (137 mM NaCl, 2.7 mM KCl, 10 mM Na2HPO4, and 1.8 mM KH2PO4) and PI320 is prepared as 3.2 mg/ml solution in water with 0.17% Tween-20. Airway hyperresponsiveness measurements, sRaw, are obtained using a Buxco FinePointe Non-Invasive Airway Mechanics instrument (DSI, St. Paul, MN) as described previously (ACS Pharmacol Transl Sci 3, 1381-1390).
Efficacy of control drug (albuterol) and PI320 are determined by reduction of sRAW in mice compared to vehicle treated control mice. Here, mouse lung inflammation is induced with INFγ and bacterial lipopolysaccharide (LPS) via intratracheal installation. Elevated levels of IFNγ in the lung are observed for neutrophilic asthma patients, which respond poorly to steroid treatment (Eur Respir J 11, 312-316). One contributing factor is the impaired nuclear translocation of the liganded glucocorticoid receptor in pulmonary macrophages (Am J Respir Crit Care Med 191, 54-62). LPS simulates a microbial infection leading to macrophage-mediated inflammatory response (J Immunol 185, 4401-4409).
The tracheal installation of INFγ/LPS increases airway hyper-responsiveness to an inhaled challenge agent as measured by sRAW, which is based on the breathing volume and frequency. The challenge agent, methacholine, is administered three times over 24 minutes resulting in sRAW of approximately 8.0 cmH2O*sec.

[5] = system: Swiss Webster mice, MC903 challenge; experiment: MC903 mouse AD model, ear thickness; format: in vivo; settings: 2 nmol topically on both ears, third week after MC903, p≤0.05 / p≤0.01
From the text: An established mouse model of AD is used to evaluate the efficacy of PI320 in reducing ear thickness following MC903 challenge (for background on the model see: J Invest Dermatol 138, 2606-2616 [28]; Proc Natl Acad Sci USA, 103, 11736-11741 [29]; Sci Transl Med, 5, 170ra116 [30]; J Invest Dermatol, 138, 1555-1563 [31]). Ear thickness is used as a measure of inflammation caused by the chemical irritant.
Briefly, commercially sourced female Swiss Webster mice (Charles River Laboratory, Wilmington, MA) at approximately seven weeks of age are used. Sixteen mice are housed under 7:00 AM-7:00 PM 12 h light cycle and administered 2 nmol MC903 on each ear on Monday, Wednesday and Friday for two weeks. The ear thickness increased from 0.3 mm to 0.7 mm during that time. During the third week, a group of eight mice were administered 2 nmol of PI320 topically on both ears (10 ul of a 100 uM solution in ethanol on each side of both ears). The control group received vehicle ethanol. Ear thickness is measured using calipers. […] See, FIG. 4.

[6] = system: C57BL/6 mouse bladder strips with intact mucosa; experiment: Functional analysis in overactive bladder model, carbachol-contracted bladder strips; set-up: species or system mice; settings: 10 uM carbachol, cumulatively increasing concentrations 1-100 uM
Protocol: C57BL/6 female mice (12 weeks, Harlan UK, Ltd) are euthanized by cervical dislocation. The bladder is removed after a midline laparotomy, the neck and trigone region cut away and the dome laid out as a sheet after an anterior wall incision. Strips with intact mucosa (5-7 mm length, 1-2 mm diameter) are dissected and tied in a horizontal trough between a fixed hook and an isometric force transducer. Preparations are superfused (3 ml·min−1) at 36° C. with Tyrode's solution. PI320 or DMSO vehicle are added to the superfusate and their effects on tension measured.
Unstimulated preparations are allowed to equilibrate under tension (20 mN) until a stable base-line is recorded. The preparation is exposed to 10 µM carbachol and peak and steady-state tension recorded. In the continued presence of carbachol the preparation is also exposed to P1320 in cumulatively increasing concentrations (1, 3, 10, […], 100 uM) until a new steady-state is achieved at each concentration. For vehicle controls DMSO is added in rising concentrations (0.01, 0.03, 0.1, 0.3, 1.0% (v/v)) after a steady-state contraction is achieved with carbachol.
Data are mean±SD; differences between multiple data sets were tested with repeated measures two-way ANOVA and Tukey post hoc tests.

GABAA receptors [7] = settings: literature value, ref [37]; read-out: reported IC50 (GABAAR binding); cited from earlier work

SMILES: COCCOCCOCCOCCOCCNC(=O)c1ncn2c1[C@@H](C)N=C(c1ccccc1F)c1cc(Br)ccc1-2 [PI320, (R)-8-bromo-6-(2-fluorophenyl)-N-(2,5,8,11,14-pentaoxahexadecan-16-yl)-4-methyl-4H-benzo[f]imidazo[1,5-a][1,4]diazepine-3-carboxamide]
- IC50 (GABAA receptors [1]): 242 nM
- change of bodyweight in comparison to the initial weight ([2]; days 6 and 7): small drop in weight
- change of bodyweight ([2]; from day 2): regained weight on day 2
- colon Myeloperoxidase (MPO) level versus vehicle group [3]: greatly reduced
- reduction of methacholine induced airway hyper-responsiveness compared with albuterol ([4]; administered via inhalation): at least as effective as albuterol
- reduction of AHR (sRAW) versus vehicle control [4]: statistically significant reductions
- ear thickness versus vehicle control [5]: significantly reduces ear thickness
- contraction force of bladder strips versus DMSO controls [6]: concentration-dependent reduction of force

SMILES: COCCOCCOCCOCCNC(=O)C1N=CN2C3=C(CC(Br)C=C3)C(c3ccccc3F)=N[C@H](C)C12 (stereo partly drawn) [PI352]
- IC50 (GABAA receptors [1]): 38 nM

SMILES: CC(C)(C)NCC(O)c1ccc(O)c(CO)c1 (stereo not drawn) [albuterol, reference compound]
- reduction of AHR (sRAW) versus vehicle control [4]: statistically significant reductions

SMILES: C[C@H]1N=C(c2ccccc2F)c2cc(Br)ccc2-n2cnc(C(=O)O)c21 [MIDD0301, (R)-8-bromo-6-(2-fluorophenyl)-4-methyl-4H-benzo[f]imidazo[1,5-a][1,4]diazepine-3-carboxylic acid]
- IC50 (GABAA receptors [7]): 72 nM

SMILES: COCCOCCNC(=O)C1N=CN2C3=C(CC(Br)C=C3)C(c3ccccc3F)=N[C@H](C)C12 (stereo partly drawn) [PI350]
- IC50 (GABAA receptors [1]): 58 nM
